We go through four compounds from ChEMBL document CHEMBL1201862, “PubChem BioAssay data set” (2004).

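Protocol summary: plate cells (96-well), add compound at 5 concentrations, incubate 48 h, interpolate endpoints linearly. GI50 marks 50% less growth.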 Activity calls are given as the source filed them. Cut-off read from the data, not from the text of the source: active = GI50 up to about 1.1 µM and inactive = higher.

Test systems include 786-0; HT-29; SF-539; A549; HOP-92; NCI/ADR-RES; UACC-257; K562; SF-268; HCT-116; ACHN; PC-3; DU-145; SK-OV-3; HCT-15; NCI-H522; SR; OVCAR-4; SF-295; MDA-MB-231.
Common to all, as to assay: NCI tumour cell line growth inhibition, 48 h

On to `COc1ccc(/C=C2\C[C@H]3[C@@H]4CC=C5C[C@@H](OC(C)=O)CC[C@]5(C)[C@H]4CC[C@]3(C)\C2=N\O)cc1OC`, for which the GI50 with 786-0 was 8.87 µM (inactive); with HT-29, 5.74 µM (inactive); with SF-539, 31 µM (inactive); in the experiment on A549, 5.12 µM (inactive); with HOP-92 it was 3.89 µM (inactive); with NCI/ADR-RES, 53.5 µM (inactive). Besides, the GI50 in the experiment on UACC-257 was 14.9 µM (inactive); in the experiment with K562, 5.19 µM (inactive); with SF-268, > 100 µM (inactive); with HCT-116, 8.05 µM (inactive); with ACHN it was 8 µM (inactive); in the experiment on PC-3, 18.8 µM (inactive). Moreover, the GI50 in the experiment with DU-145 was 39.4 µM (inactive); with SK-OV-3 it was 68.1 µM (inactive); with HCT-15, 9.44 µM; in the experiment with NCI-H522, 21.6 µM (inactive); with SR, 9.33 µM (inactive); with OVCAR-4, 11.4 µM (inactive). In the experiment on SF-295, the GI50 was 6.65 µM (inactive).
Regarding `C(/C=N/N=C1NCCCCN1)=N\N=C1NCCCCN1`, the GI50 in the experiment on 786-0, in the experiment with HT-29, in the experiment with SF-539, with A549, with HOP-92 and with NCI/ADR-RES was > 100 µM (inactive) each time. Besides, the GI50 in the experiment on UACC-257, with K562, in the experiment with SF-268, in the experiment with HCT-116, in the experiment with ACHN and in the experiment on PC-3 was > 100 µM (inactive) each time. Also, the GI50 in the experiment on SK-OV-3, in the experiment on NCI-H522, with MDA-MB-231, with SR, in the experiment with OVCAR-4 and in the experiment with SF-295 was > 100 µM (inactive) each time.
For the compound `COC(=O)[C@@H](O)[C@]1(C(=O)OC)C2O[C@@H](OC)[C@@H]1CCCCCC[C@H]2O`, the GI50 in the experiment on 786-0, in the experiment on HT-29, in the experiment with SF-539, in the experiment with A549, in the experiment on NCI/ADR-RES and in the experiment with UACC-257 was > 100 µM (inactive) in each case. For the same compound, the GI50 with K562, with SF-268, in the experiment on HCT-116, in the experiment on ACHN, in the experiment on PC-3 and in the experiment on SK-OV-3 was > 100 µM (inactive) throughout. Moreover, the GI50 in the experiment with HCT-15 is more than 100 µM; in the experiment on NCI-H522 it was > 100 µM (inactive); in the experiment with MDA-MB-231, > 100 µM (inactive); in the experiment on SR, > 100 µM (inactive); with OVCAR-4 it was > 100 µM (inactive); with SF-295, > 100 µM (inactive).
Regarding `CN(C)CCOC1(Cc2ccc(Cl)cc2Cl)CCC(C(C)(C)C)CC1` (configuration not stated), the GI50 in the experiment on 786-0 was 1.58 µM (inactive); in the experiment on HT-29, 1.43 µM (inactive); in the experiment on SF-539, 2.02 µM (inactive); in the experiment with A549, 2.23 µM (inactive); in the experiment on NCI/ADR-RES, 1.47 µM (inactive); in the experiment on UACC-257, 1.11 µM (active). Moreover, the GI50 was 1.69 µM (inactive) in the experiment on K562; 3.01 µM (inactive) in the experiment with SF-268; 1.95 µM (inactive) in the experiment on HCT-116; 2.27 µM (inactive) with ACHN; 1.68 µM (inactive) in the experiment on PC-3; 10.5 µM (inactive) in the experiment with SK-OV-3. The GI50 was 2 µM (inactive) in the experiment with NCI-H522; 1.77 µM (inactive) in the experiment with MDA-MB-231; 0.0266 µM (active) with SR; 2.42 µM (inactive) with OVCAR-4; 2.09 µM (inactive) in the experiment with SF-295.
